In US11814364B2, “Pyridine N-oxide derivatives useful as factor XIa inhibitors” (Janssen Pharmaceutica NV, priority 2021, dated 2023):

Target: human plasma kallikrein (Homo sapiens, UniProt P03952)
Assay: Kallikrein inhibition FLINT assay with quenched AMC peptide substrate Z-Gly-Pro-Arg-AMC (end point EP or kinetic KIN reads)
Format: biochemical
Conditions: kinetic reads at 5 min intervals over 30 min; read-out: Kallikrein (KIN) IC50
Outline: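 Enzyme and compound were preincubated 30 min before adding 50 μM AMC substrate in pH 7.5 Tris/NaCl/CaCl2/BSA/CHAPS buffer. AMC release was read at 30 min endpoint or every 5 min.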

Sequence of human plasma kallikrein (P03952 391-638 limits assumed): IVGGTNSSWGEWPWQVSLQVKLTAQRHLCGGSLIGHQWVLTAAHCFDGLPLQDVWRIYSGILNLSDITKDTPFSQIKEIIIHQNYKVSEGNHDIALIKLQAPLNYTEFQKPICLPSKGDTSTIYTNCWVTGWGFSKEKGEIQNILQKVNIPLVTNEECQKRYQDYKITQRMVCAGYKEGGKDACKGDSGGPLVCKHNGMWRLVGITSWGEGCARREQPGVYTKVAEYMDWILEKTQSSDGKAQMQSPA
Sequence of human plasma kallikrein (P03952 20-390 partner limits assumed): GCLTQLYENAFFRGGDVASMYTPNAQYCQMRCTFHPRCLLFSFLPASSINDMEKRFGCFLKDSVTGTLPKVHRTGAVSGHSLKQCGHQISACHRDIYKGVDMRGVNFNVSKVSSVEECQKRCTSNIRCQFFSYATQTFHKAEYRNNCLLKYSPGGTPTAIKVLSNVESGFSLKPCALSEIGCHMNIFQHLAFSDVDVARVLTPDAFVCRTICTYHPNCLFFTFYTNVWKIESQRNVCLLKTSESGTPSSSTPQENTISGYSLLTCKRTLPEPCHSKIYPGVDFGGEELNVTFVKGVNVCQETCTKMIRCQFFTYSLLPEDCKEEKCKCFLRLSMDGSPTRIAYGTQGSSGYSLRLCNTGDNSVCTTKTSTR

Row | Compound | IC50
1 | O=C(O)c1ccc(-c2cnn(C(Cc3ccn(C(F)F)n3)c3ccc(-c4c(C(F)F)ccc(Cl)c4F)c[n+]3[O-])c2)cc1F (single isomer, unassigned) [Example Q64] | 0.0047 µM
2 | CCC(c1cc(OC)c(-c2cc(Cl)ccc2-n2cc(C(F)(F)F)nn2)c[n+]1[O-])n1cc(-c2ccc(C(N)=O)c(F)c2)cn1 (single isomer, unassigned) [Example P878] | 0.0027 µM
3 | NC(=O)c1ccc(-c2cnn(C(Cc3ncco3)c3ccc(-c4c(-n5cc(C(F)(F)F)nn5)ccc(Cl)c4F)c[n+]3[O-])c2)cc1F (centres unmarked) [Example P909] | 0.0055 µM
4 | [2H]C([2H])([2H])n1ncc(NC(=O)C2CC2)c1-c1cnn(C(CCOC(F)F)c2ccc(-c3c(-n4cc(Cl)nn4)ccc(Cl)c3F)c[n+]2[O-])c1 (single isomer, unassigned) [Example P810] | ~0.383 µM
5 | [O-][n+]1cc(-c2c(-n3cc(Cl)nn3)ccc(Cl)c2F)ccc1[C@@H](Cn1cc(OC(F)F)cn1)n1cc(-c2cn(C(F)F)nn2)cn1 [Example P655] | 0.734 µM
6 | CN(CC(c1ccc(-c2c(-n3cnnn3)ccc(Cl)c2F)c[n+]1[O-])n1cc(-c2ccnc(C(F)(F)F)c2)cn1)C(=O)OCc1ccccc1 (single isomer, unassigned) [Example P375] | 0.0559 µM
7 | Cn1cc(-c2cnn([C@H](Cc3ccn(C(F)F)n3)c3ccc(-c4c(-n5cc(C#N)nn5)ccc(Cl)c4F)c[n+]3[O-])c2)c(Cl)n1 [Example P852] | 0.0022 µM
8 | Cn1ccc(CC(c2ccc(-c3c(-n4cnnn4)ccc(Cl)c3F)c[n+]2[O-])n2cc(-c3ccnc(C#N)c3)cn2)n1 (centres unmarked) [Example P359] | 0.0102 µM
9 | Cn1nccc1-c1cnn(C(Cn2cc(F)cn2)c2ccc(-c3c(-n4cnnn4)ccc(Cl)c3F)c[n+]2[O-])c1 (single isomer, unassigned) [Example P501] | 0.736 µM
10 | O=C(NC1CC1)c1ccc(-c2cnn(C(CC3CCCCO3)c3ccc(-c4c(-n5cnnn5)ccc(Cl)c4F)c[n+]3[O-])c2)cc1 (single isomer, unassigned) [Example P142] | 0.108 µM
11 | COC(=O)Nc1ccc(-c2cnn(C(Cc3ccn(C)n3)c3ccc(-c4c(-n5cnnn5)ccc(Cl)c4F)c[n+]3[O-])c2)cc1 (single isomer, unassigned) [Example P328] | 0.0004 µM
12 | [O-][n+]1ccc(-c2cnn(C(CC3CC3)c3ccc(-c4c(-n5cnnn5)ccc(Cl)c4F)c[n+]3[O-])c2)cn1 (centres unmarked) [Example P398] | 0.73 µM
13 | CCC(c1cc(OC)c(-c2cc(Cl)ccc2-n2cc(C(F)(F)F)nn2)c[n+]1[O-])n1cc(-c2ncnn2C)cn1 (single isomer, unassigned) [Example P922] | 0.0549 µM
14 | CCC(c1ccc(-c2c(-n3cnnn3)ccc(Cl)c2F)c[n+]1[O-])n1cc(-c2ccncc2)cn1 (single isomer, unassigned) [Example P212] | 0.0593 µM
15 | COc1ccc(CC(c2ccc(-c3cc(Cl)ccc3-n3cnnn3)c[n+]2[O-])n2cc(-c3ccc(C(=O)O)cc3)cn2)cc1 (centres unmarked) [Example P64] | 0.0053 µM
16 | COc1cc(C(CC2CC2)n2cc(-c3cnn(C)c(=O)c3)cn2)[n+]([O-])cc1-c1c(-n2cnnn2)ccc(Cl)c1F (centres unmarked) [Example P66] | 0.0206 µM
17 | Cc1cc(-c2cnn(C(Cn3cc(F)cn3)c3ccc(-c4c(-n5cnnn5)ccc(Cl)c4F)c[n+]3[O-])c2)cc(C)[n+]1[O-] (centres unmarked) [Example P477] | 0.188 µM
18 | [2H]C([2H])([2H])OCCC(c1ccc(-c2c(-n3cnnn3)ccc(Cl)c2F)c[n+]1[O-])n1cc(-c2ccc(NC(=O)OC)cc2)cn1 (centres unmarked) [Example P289] | 0.0138 µM
19 | NC(=O)c1ccc(-c2cnn(C(Cc3ccn(C(F)F)n3)c3ccc(-c4c(C(F)F)ccc(Cl)c4F)c[n+]3[O-])c2)cc1 (single isomer, unassigned) [Example Q68] | 0.111 µM
20 | COc1cc(C(CC2CC2)n2cc(-c3ccnn3C)cn2)[n+]([O-])cc1-c1c(-n2cnnn2)ccc(Cl)c1F (single isomer, unassigned) [Example P490] | 0.0163 µM
21 | COc1ccc(C2CC2CC(c2ccc(-c3cc(Cl)ccc3-n3cnnn3)c[n+]2[O-])n2cc(-c3ccc(C(=O)O)cc3)cn2)cc1 (centres unmarked) [Example P239] | 0.18 µM
22 | NC(=O)C1CC1CC(c1ccc(-c2c(-n3cnnn3)ccc(Cl)c2F)c[n+]1[O-])n1cc(-c2ccc(N)nc2F)cn1 (single isomer, unassigned) [Example P337] | 0.556 µM
23 | Cn1ccc(C[C@H](c2ccc(-c3c(-n4cc(C(F)(F)F)nn4)ccc(Cl)c3F)c[n+]2[O-])n2cc(-c3ccc(C(=O)O)cc3)cn2)n1 [Example P855] | 0.0037 µM
24 | CN(CC(c1ccc(-c2c(-n3cnnn3)ccc(Cl)c2F)c[n+]1[O-])n1cc(-c2ccnc(C(F)(F)F)c2)cn1)C(=O)C1CC1 (single isomer, unassigned) [Example P425] | 0.572 µM
25 | COc1cc(C(CC2CC2C(=O)N2CCCCC2)n2cc(-c3ccc(N)nc3C)cn2)[n+]([O-])cc1-c1c(-n2cnnn2)ccc(Cl)c1F (centres unmarked) [Example P248] | 0.0149 µM
26 | [O-][n+]1cc(-c2c(-n3cnnn3)ccc(Cl)c2F)ccc1C(CCOC(F)F)n1cc(-c2ccncn2)cn1 (centres unmarked) [Example P367] | 0.0439 µM
27 | COc1cc(C(CC2CC2)n2cc(-c3ncnn3C(F)F)cn2)[n+]([O-])cc1-c1cc(Cl)ccc1-n1cc(C(F)(F)F)nn1 (single isomer, unassigned) [Example P940] | 0.0142 µM

Row | Compound | IC50
28 | NC(=O)C1CC1CC(c1ccc(-c2c(-n3cnnn3)ccc(Cl)c2F)c[n+]1[O-])n1cc(-c2ccc(N)nc2F)cn1 (single isomer, unassigned) [Example P341] | 0.32 µM
29 | CN(CC(c1ccc(-c2c(-n3cnnn3)ccc(Cl)c2F)c[n+]1[O-])n1cc(-c2ccnc(F)c2)cn1)C(=O)c1ccccc1 (centres unmarked) [Example P424] | 0.0286 µM
30 | CN(CC(c1ccc(-c2c(-n3cnnn3)ccc(Cl)c2F)c[n+]1[O-])n1cc(-c2ccncc2)cn1)OC(F)(F)F (centres unmarked) [Example P323] | 0.023 µM
31 | Cc1nc(N)ccc1-c1cnn(C(CCOC(F)F)c2ccc(-c3c(-n4cnnn4)ccc(Cl)c3F)c[n+]2[O-])c1 (centres unmarked) [Example P342] | 0.0043 µM
32 | Cn1nnc(F)c1-c1cnn([C@H](CCOC(F)F)c2ccc(-c3c(-n4cnnn4)ccc(Cl)c3F)c[n+]2[O-])c1 [Example P724] | 0.0085 µM
33 | COC(=O)Nc1ccc(-c2cnn(C(Cn3cccn3)c3ccc(-c4c(-n5cnnn5)ccc(Cl)c4F)c[n+]3[O-])c2)cc1 (centres unmarked) [Example P214] | 0.0063 µM
34 | [O-][n+]1cc(-c2c(C(F)F)ccc(Cl)c2F)ccc1C(CCOC(F)F)n1cc(-c2ccnc(C(F)(F)F)n2)cn1 (centres unmarked) [Example Q29] | 0.259 µM
35 | [O-][n+]1cc(-c2c(-n3cnnn3)ccc(Cl)c2F)ccc1C(Cc1ccc(F)cc1)n1cc(-c2cnn(C(F)F)n2)cn1 (single isomer, unassigned) [Example P598] | 0.862 µM
36 | NC(=O)c1ccc(-c2cnn(C(CC3CC3)c3ccc(-c4c(-n5cc(C(F)(F)F)nn5)ccc(Cl)c4F)c[n+]3[O-])c2)s1 (centres unmarked) [Example P904] | 0.123 µM
37 | Cn1nncc1-c1cnn([C@@H](Cc2ccc(C(F)(F)F)nc2)c2ccc(-c3c(-n4cc(Cl)nn4)ccc(Cl)c3F)c[n+]2[O-])c1 [Example P773] | 4.21 µM
38 | COc1cc(C(CC2CC2)n2cc(-c3ccc(C(N)=O)c(F)c3)cn2)[n+]([O-])cc1-c1cc(Cl)ccc1C#N (centres unmarked) [Example Q59] | 0.0252 µM
39 | NC(=O)c1cnn(CC(c2ccc(-c3c(-n4cnnn4)ccc(Cl)c3F)c[n+]2[O-])n2cc(-c3ccnc(C(F)(F)F)c3)cn2)c1 (centres unmarked) [Example P483] | 0.0091 µM
40 | CN(CC(c1ccc(-c2c(-n3cnnn3)ccc(Cl)c2F)c[n+]1[O-])n1cc(-c2ccnc(C(F)(F)F)c2)cn1)C(=O)CCC(=O)N1CCCCC1 (single isomer, unassigned) [Example P400] | 0.0938 µM
41 | COCC[C@H](c1ccc(-c2c(-n3cnnn3)ccc(Cl)c2F)c[n+]1[O-])n1cc(-c2cnnn2C(F)F)cn1 [Example P690] | 0.18 µM
42 | NC(=O)c1ccnn1CC(c1ccc(-c2c(C(F)F)ccc(Cl)c2F)c[n+]1[O-])n1cc(-c2ccnc(C(F)(F)F)c2)cn1 (single isomer, unassigned) [Example Q28] | 0.0946 µM
43 | CN(CC(c1ccc(-c2c(-n3cnnn3)ccc(Cl)c2F)c[n+]1[O-])n1cc(-c2ccnc(C(F)(F)F)c2)cn1)C(=O)C1CC1 (single isomer, unassigned) [Example P428] | 0.0641 µM
44 | [O-][n+]1cc(-c2c(-n3cnnn3)ccc(Cl)c2F)ccc1C(Cn1cc(F)cn1)n1cc(-c2ccncc2)cn1 (centres unmarked) [Example P276] | 0.0081 µM
45 | O=C(O)c1ccc(-c2cnn(C(Cc3ccn(C(F)F)n3)c3ccc(-c4c(-n5cc(Cl)nn5)ccc(Cl)c4F)c[n+]3[O-])c2)cc1 (single isomer, unassigned) [Example P898] | 0.0025 µM
46 | O=C(O)c1ccc(-c2cnn(C(CC3CC3C(=O)N3CCC(c4ccccc4)C3)c3ccc(-c4cc(Cl)ccc4-n4cnnn4)c[n+]3[O-])c2)cc1 (single isomer, unassigned) [Example P99] | 2.37 µM
47 | COCC[C@H](c1ccc(-c2c(-n3cnnn3)ccc(Cl)c2F)c[n+]1[O-])n1cc(-c2cc(C(F)(F)F)nn2C)cn1 [Example P619] | 0.0893 µM
48 | Cn1nnc(-c2cnn([C@H](CCOC(F)F)c3ccc(-c4c(-n5cc(Cl)nn5)ccc(Cl)c4F)c[n+]3[O-])c2)c1F [Example P705] | 0.21 µM
49 | Cn1nnc(F)c1-c1cnn(C(CCOC(F)F)c2ccc(-c3c(-n4cnnn4)ccc(Cl)c3F)c[n+]2[O-])c1 (centres unmarked) [Example P749] | 0.0198 µM
50 | CCC(c1cc(OC)c(-c2cc(Cl)ccc2-n2cc(C(F)(F)F)nn2)c[n+]1[O-])n1cc(-c2ccc(C(N)=O)c(F)c2)cn1 (single isomer, unassigned) [Example P877] | 0.22 µM
51 | O=C(O)c1ccc(-c2cnn(C(Cc3ccn(C(F)F)n3)c3ccc(-c4c(-n5cc(C(F)(F)F)nn5)ccc(Cl)c4F)c[n+]3[O-])c2)cc1 (single isomer, unassigned) [Example P900] | 0.0022 µM
52 | COc1ccc(CC(c2ccc(-c3c(-n4cnnn4)ccc(Cl)c3F)c[n+]2[O-])n2cc(-c3ccn(C)c(=O)c3)cn2)cc1 (centres unmarked) [Example P134] | 0.0071 µM
53 | Cc1ncn(-c2cnn([C@H](CCOC(F)F)c3ccc(-c4c(-n5cc(C(F)(F)F)nn5)ccc(Cl)c4F)c[n+]3[O-])c2)n1 [Example P823] | 0.566 µM
